These results are taken from patent US9745289B2, “Aldosterone synthase inhibitors” (Boehringer Ingelheim International GmbH, priority 2014, dated 2017).

pIC50: −log10 of the molar value.

For orientation: pIC50 means the negative decadic logarithm of the IC50, by convention in mol/L. A higher pIC50 goes with a small IC50.

This experiment deals with cortisol synthase (CYP11B1) (Macaca fascicularis, UniProt A0A2K5ULY1). Briefly: Inhibition of Cortisol Synthesis. As to conditions: cynomolgus adrenal gland mitochondria; 150 units of CYP11B1, 11-deoxycortisol as substrate, cortisol measured as product. It counts as biochemical, cynomolgus monkey. On the procedure: The aldosterone synthase and cortisol synthase inhibition assays employ cynomolgus adrenal gland mitochondria as the source of aldosterone synthase (CYP11B2) and cortisol synthase (CYP11B1). […] Activity of CYP11B2 and CYP11B1 in these preparations is defined as the amount of enzyme that generates 1 pmol of product in one hour under the conditions described.
Assays are performed in 96-well format in a final volume of 60 μL/well, containing 100 mM potassium phosphate, pH 7.4, 1% (v/v) DMSO, and additionally, 2 μM of corticosterone and 50 units of CYP11B2 activity. Reactions are started by the addition of NADPH to 1 mM and allowed to proceed for 90 minutes at 37° C. Reactions are terminated by the addition of 60 μL of MeCN containing an internal standard for mass spectrometry. One hundred microliters are then transferred to a glass filter plate and centrifuged at 570×g for 5 minutes and the filtrate is collected. Reaction product aldosterone is quantified by mass spectrometry. To determine the assay blank value (0% activity), NADPH is omitted from some reactions.
Dose dependent inhibition is quantified by the inclusion of compound at various concentrations. Maximum activity (100%) is defined by reactions containing NADPH, but without compound.
Assays are performed as for aldosterone synthase except for the use of 150 units of CYP11B1, 11-deoxycortisol as substrate and cortisol measured as product.
Regarding `NC(=O)c1cccc2c1OCC(c1cncc(C3CCOCC3)c1)O2` (single isomer, unassigned) [Cpd 10A, 2-[5-(Tetrahydro-pyran-4-yl)-pyridin-3-yl]-2,3-dihydro-benzo[1,4]dioxine-5-carboxylic acid amide], the pIC50 was 5.47.

In the case of `NC(=O)c1cccc2c1OCC(c1cncc3c1CCC3O)O2` (single isomer, unassigned) [Cpd 52AB, 2-(7-Hydroxy-6,7-dihydro-5H-[2]pyrindin-4-yl)-2,3-dihydro-benzo[1,4]dioxine-5-carboxylic acid amide], the pIC50 was 6.09.

`C[C@H](O)c1c(F)cncc1C1COc2c(cccc2C(N)=O)O1` (single isomer, unassigned) [Cpd 56A] gave a pIC50 of 4.85.

Regarding `CC(=O)N1CCC[C@@H](Oc2cncc(C3COc4c(cccc4C(N)=O)O3)c2)C1` (single isomer, unassigned) [Cpd 7B], the pIC50 is 4.72.

In turn, `CCOc1cncc(C2COc3c(cccc3C(N)=O)O2)c1` (single isomer, unassigned) [Cpd 45B, 2-(5-ethoxy-pyridin-3-yl)-2,3-dihydro-benzo[1,4]dioxine-5-carboxylic acid amide] showed a pIC50 of 6.55.

Molecule `CCS(=O)(=O)NC(c1cncc(C2COc3c(cccc3C(N)=O)O2)c1)C1CC1` (single isomer, unassigned) [Cpd 60AA] showed a pIC50 of less than 4.52.

`NC(=O)c1cccc2c1OCC(c1cncc(O[C@@H]3CCOC3)c1)O2` (single isomer, unassigned) [Cpd 46A]: the negative logarithm of the IC50 (pIC50) is 5.15.

`NC(=O)c1cccc2c1OCC(c1cncc(F)c1)O2` (single isomer, unassigned) [Cpd 51A, 2-(5-Fluoro-pyridin-3-yl)-2,3-dihydro-benzo[1,4]dioxine-5-carboxylic acid amide] showed a negative logarithm of the IC50 (pIC50) of 5.92.

For `NC(=O)c1cccc2c1OCC(c1cncc(CN3CCCC3=O)c1)O2` (single isomer, unassigned) [Cpd 5B, 2-[5-(2-Oxo-pyrrolidin-1-ylmethyl)-pyridin-3-yl]-2,3-dihydro-benzo[1,4]dioxine-5-carboxylic acid amide], the pIC50 is 4.66.

Molecule `Cc1c(C(C)O)cncc1C1COc2c(cccc2C(N)=O)O1` (single isomer, unassigned) [Cpd 27A, 2-[5-(1-Hydroxy-ethyl)-4-methyl-pyridin-3-yl]-2,3-dihydro-benzo[1,4]dioxine-5-carboxylic acid amide] had a pIC50 of 5.55.

The molecule `CN1C(=O)CCC1c1cncc(C2COc3c(cccc3C(N)=O)O2)c1` (single isomer, unassigned) [Cpd 6BA, 2-[5-(-1-Methyl-5-oxo-pyrrolidin-2-yl)-pyridin-3-yl]-2,3-dihydro-benzo[1,4]dioxine-5-carboxylic acid amide] had a pIC50 of less than 4.52.

Molecule `NC(=O)c1cccc2c1OCC(c1cncc(C(O)C(F)(F)F)c1)O2` (single isomer, unassigned) [Cpd 49AB, 2-[5-(2,2,2-Trifluoro-1-hydroxy-ethyl)-pyridin-3-yl]-2,3-dihydro-benzo[1,4]dioxine-5-carboxylic acid amide] had a pIC50 of 5.96.

Turning to `CCS(=O)(=O)NC(c1cncc(C2COc3c(cccc3C(N)=O)O2)c1)C1CC1` (single isomer, unassigned) [Cpd 60BA], the negative logarithm of the IC50 (pIC50) is less than 4.52.

As for `CNC(=O)c1cccc2c1OCC(c1cncc(OC3CCN(C(C)=O)CC3)c1)O2` (single isomer, unassigned) [Cpd 33A, 2-[5-(1-Acetyl-piperidin-4-yloxy)-pyridin-3-yl]-2,3-dihydro-benzo[1,4]dioxine-5-carboxylic acid methylamide], the negative-log IC50 (pIC50) was less than 4.52.

`N#Cc1cccc2c1OCC(c1cncc(CC(=O)N3CCOCC3)c1)O2` (single isomer, unassigned) [Cpd 43A, 2-[5-(2-Morpholin-4-yl-2-oxo-ethyl)-pyridin-3-yl]-2,3-dihydro-benzo[1,4]dioxine-5-carbonitrile] gave a negative-log IC50 (pIC50) of 4.66.

Take `CS(=O)(=O)COc1cncc(C2COc3c(C#N)cccc3O2)c1` (single isomer, unassigned) [Cpd 44B, 2-(5-Methanesulfonylmethoxy-pyridin-3-yl)-2,3-dihydro-benzo[1,4]dioxine-5-carbonitrile]: the pIC50 is 4.89.

In turn, `CNC(=O)c1cccc2c1OCC(c1cncc(OC3CCN(C(C)=O)CC3)c1)O2` (single isomer, unassigned) [Cpd 33B, 2-[5-(1-Acetyl-piperidin-4-yloxy)-pyridin-3-yl]-2,3-dihydro-benzo[1,4]dioxine-5-carboxylic acid methylamide] showed a pIC50 of less than 4.52.

`CCS(=O)(=O)NC(c1cncc(C2COc3c(cccc3C(N)=O)O2)c1)C1CC1` (single isomer, unassigned) [Cpd 60BB] gave a negative logarithm of the IC50 (pIC50) of less than 4.52.

Take `CS(=O)(=O)Cc1cncc(C2COc3c(C#N)cccc3O2)c1` (single isomer, unassigned) [Cpd 37B, 2-(5-Methanesulfonylmethyl-pyridin-3-yl)-2,3-dihydro-benzo[1,4]dioxine-5-carbonitrile]: the pIC50 is 5.10.

On to `NC(=O)c1cccc2c1OCC(c1cncc(CNC(=O)C3CC3)c1)O2` (single isomer, unassigned) [Cpd 14B, 2-{5-[(Cyclopropanecarbonyl-amino)-methyl]-pyridin-3-yl}-2,3-dihydro-benzo[1,4]dioxine-5-carboxylic acid amide.], for which the negative logarithm of the IC50 (pIC50) was less than 4.52.

In the case of `CC(=O)N1CCC[C@@H](Oc2cncc(C3COc4c(cccc4C(N)=O)O3)c2)C1` (single isomer, unassigned) [Cpd 7A], the pIC50 is less than 4.52.

The molecule `N#Cc1cccc2c1OCC(c1cncc(CN3CCCCS3(=O)=O)c1)O2` (single isomer, unassigned) [Cpd 41B, 2-[5-(1,1-Dioxo-1lambda6-[1,2]thiazinan-2-ylmethyl)-pyridin-3-yl]-2,3-dihydro-benzo[1,4]dioxine-5-carbonitrile] gave a pIC50 of 5.41.

Turning to `CS(=O)(=O)Cc1cncc(C2COc3c(cccc3C(N)=O)O2)c1` (single isomer, unassigned) [Cpd 8B, 2-(5-Methanesulfonylmethyl-pyridin-3-yl)-2,3-dihydro-benzo[1,4]dioxine-5-carboxylic acid amide], the negative-log IC50 (pIC50) was 4.89.

As for `CN(C)C(=O)COCc1cncc(C2COc3c(C#N)cccc3O2)c1` (single isomer, unassigned) [Cpd 42B, 2-[5-(5-Cyano-2,3-dihydro-benzo[1,4]dioxin-2-yl)-pyridin-3-ylmethoxy]-N,N-dimethyl-acetamide], the pIC50 is 5.89.

The molecule `CNC(=O)c1cccc2c1OCC(c1cncc(C(F)(F)F)c1)O2` (single isomer, unassigned) [Cpd 28A, 2-(5-Trifluoromethyl-pyridin-3-yl)-2,3-dihydro-benzo[1,4]dioxine-5-carboxylic acid methylamide] gave a negative-log IC50 (pIC50) of less than 4.52.

For the molecule `N#Cc1cccc2c1OCC(c1cncc(CN3CCOC3=O)c1)O2` (single isomer, unassigned) [Cpd 34A, 2-[5-(2-Oxo-oxazolidin-3-ylmethyl)-pyridin-3-yl]-2,3-dihydro-benzo[1,4]dioxine-5-carbonitrile], the pIC50 was 5.07.

In turn, `CN(C)C(=O)COCc1cncc(C2COc3c(C#N)cccc3O2)c1` (single isomer, unassigned) [Cpd 42A, 2-[5-(5-Cyano-2,3-dihydro-benzo[1,4]dioxin-2-yl)-pyridin-3-ylmethoxy]-N,N-dimethyl-acetamide] showed a pIC50 of 4.74.

Molecule `Cc1c(F)cncc1C1COc2c(cccc2C(N)=O)O1` (single isomer, unassigned) [Cpd 21A, 2-(5-Fluoro-4-methyl-pyridin-3-yl)-2,3-dihydro-benzo[1,4]dioxine-5-carboxylic acid amide] showed a pIC50 of 5.59.

The molecule `N#Cc1cccc2c1OCC(c1cncc(CN3CCOCC3=O)c1)O2` (single isomer, unassigned) [Cpd 36A, 2-[5-(3-Oxo-morpholin-4-ylmethyl)-pyridin-3-yl]-2,3-dihydro-benzo[1,4]dioxine-5-carbonitrile] showed a pIC50 of less than 4.52.

Molecule `NC(=O)c1cccc2c1OCC(c1cncc3c1CCC3O)O2` (single isomer, unassigned) [Cpd 52BB, 2-(7-Hydroxy-6,7-dihydro-5H-[2]pyrindin-4-yl)-2,3-dihydro-benzo[1,4]dioxine-5-carboxylic acid amide] had a pIC50 of 4.89.

In the case of `CS(=N)(=O)Cc1cncc(C2COc3c(C#N)cccc3O2)c1` (single isomer, unassigned) [Cpd 62AB, 2-(5-{[imino(methyl)oxo-λ^6-sulfanyl]methyl}pyridin-3-yl)-2,3-dihydro-1,4-benzodioxine-5-carbonitrile], the pIC50 was less than 4.52.

`NC(=O)c1cccc2c1OCC(c1cncc(C(F)(F)F)c1)O2` (single isomer, unassigned) [Cpd 9A, 2-(5-Trifluoromethyl-pyridin-3-yl)-2,3-dihydro-benzo[1,4]dioxine-5-carboxylic acid amide] showed a negative-log IC50 (pIC50) of 5.28.

The molecule `CCS(=O)(=O)NCc1cncc(C2COc3c(C#N)cccc3O2)c1` (single isomer, unassigned) [Cpd 54A, Ethanesulfonic acid [5-(5-cyano-2,3-dihydro-benzo[1,4]dioxin-2-yl)-pyridin-3-ylmethyl]-amide] gave a negative-log IC50 (pIC50) of 4.64.
